Assay results published in ChEMBL document CHEMBL4842360, “Discovery of a Bicyclic Peptidyl Pan-Ras Inhibitor” (J Med Chem, 2021).

Columns and labels:
NCI-H358 = experiment: Antiproliferative activity against human NCI-H358 cells incubated for 96 hrs by Celltiter-Glo assay; assay type: functional, cell-based
GTPase KRas = GTPase KRas (Homo sapiens, UniProt P01116, G12V); experiment: Inhibition of His6-tagged KRas G12V mutant (unknown origin) expressed in Escherichia coli BL21(DE3) cells assessed as reduction in Ras/GST-fused Raf RBD interaction incubated for 1 hr by HTRF assay
[1] = Homo sapiens, NCI-H358, 96 h, read-out: EC50

GTPase KRas, sequence (P01116 whole entry G12V, the tested form may be a part): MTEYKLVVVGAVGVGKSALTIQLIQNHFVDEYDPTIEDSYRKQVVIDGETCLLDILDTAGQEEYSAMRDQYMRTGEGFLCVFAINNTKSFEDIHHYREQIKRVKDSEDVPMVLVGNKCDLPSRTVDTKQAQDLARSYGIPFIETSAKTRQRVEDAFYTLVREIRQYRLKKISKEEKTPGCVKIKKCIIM

| EC50 (NCI-H358; [1]) | Compound | further results |
| --- | --- | --- |
| 7.2 µM | CC[C@H]1NC(=O)[C@@H](Cc2ccccc2)NC(=O)[C@@H]2CCCCNC(=O)c3cc(cc(c3)C(=O)N[C@H](Cc3ccc4ccccc4c3)C(=O)N[C@@H](CO)C(=O)N[C@@H](CC(N)=O)C(=O)N[C@H](Cc3ccc4ccccc4c3)C(=O)N[C@@H](c3ccccc3)C(=O)N2)C(=O)NC[C@@H](C(=O)N[C@@H](CCCN)C(=O)N[C@H](CCCNC(=N)N)C(=O)N[C@@H](Cc2ccccc2)C(=O)N[C@H](C)C(N)=O)NC(=O)[C@H](CCCNC(=N)N)NC(=O)[C@@H](CCCNC(=N)N)NC1=O | – |
| 4.9 µM | C[C@@H]1NC(=O)[C@H](CO)NC(=O)[C@@H](Cc2ccc3ccccc3c2)NC(=O)c2cc3cc(c2)C(=O)NC[C@@H](C(=O)N[C@@H](CCCN)C(=O)N[C@H](CCCNC(=N)N)C(=O)N[C@@H](Cc2ccccc2)C(=O)N[C@H](C)C(N)=O)NC(=O)[C@H](CCCNC(=N)N)NC(=O)[C@@H](CCCNC(=N)N)NC(=O)[C@@H](CCC(N)=O)NC(=O)[C@@H](Cc2ccccc2)NC(=O)[C@H](CCCCNC3=O)NC(=O)[C@H](c2ccccc2)NC(=O)[C@@H](Cc2ccc3ccccc3c2)NC1=O | – |
| 7.1 µM | CC(C)[C@H](NC(=O)[C@H](Cc1ccccc1)NC(=O)[C@@H](CCCNC(=N)N)NC(=O)[C@H](CCCN)NC(=O)[C@@H]1CNC(=O)c2cc3cc(c2)C(=O)N[C@H](Cc2ccc4ccccc4c2)C(=O)N[C@@H](CO)C(=O)N[C@@H](CC(N)=O)C(=O)N[C@H](Cc2ccc4ccccc4c2)C(=O)N[C@@H](c2ccccc2)C(=O)N[C@@H](CCCCNC3=O)C(=O)N[C@H](Cc2ccccc2)C(=O)N[C@H](CCC(N)=O)C(=O)N[C@H](CCCNC(=N)N)C(=O)N[C@@H](CCCNC(=N)N)C(=O)N1)C(N)=O | – |
| – | C[C@@H]1NC(=O)[C@@H](Cc2ccccc2)NC(=O)[C@@H]2CCCCNC(=O)c3cc(cc(c3)C(=O)N[C@H](Cc3ccc4ccccc4c3)C(=O)N[C@@H](CO)C(=O)N[C@@H](CCC(N)=O)C(=O)N[C@H](Cc3ccc4ccccc4c3)C(=O)N[C@@H](c3ccccc3)C(=O)N2)C(=O)NC[C@@H](C(=O)N2CCC[C@@H]2C(=O)N[C@H](CCCNC(=N)N)C(=O)N[C@H](Cc2ccc3ccccc3c2)C(=O)N[C@@H](CCC(=O)O)C(N)=O)NC(=O)[C@H](CCCNC(=N)N)NC(=O)[C@@H](CCCNC(=N)N)NC1=O | IC50 (GTPase KRas): Not Active |
| 5.3 µM | N=C(N)NCCC[C@@H]1NC(=O)[C@@H](CCCNC(=N)N)NC(=O)[C@@H](CCC(N)=O)NC(=O)[C@@H](Cc2ccccc2)NC(=O)[C@@H]2CCCCNC(=O)c3cc(cc(c3)C(=O)N[C@H](Cc3ccc4ccccc4c3)C(=O)N[C@@H](CO)C(=O)N[C@@H](CC(N)=O)C(=O)N[C@H](Cc3ccc4ccccc4c3)C(=O)N[C@@H](c3ccccc3)C(=O)N2)C(=O)NC[C@@H](C(=O)N[C@@H](CCCN)C(=O)N[C@H](CCCNC(=N)N)C(=O)N[C@@H](Cc2ccccc2)C(=O)N[C@H](CO)C(N)=O)NC1=O | – |
| 9.2 µM | C[C@@H]1NC(=O)[C@@H](Cc2ccccc2)NC(=O)[C@@H]2CCCCNC(=O)c3cc(cc(c3)C(=O)N[C@H](Cc3ccc4ccccc4c3)C(=O)N[C@@H](CO)C(=O)N[C@@H](CC(N)=O)C(=O)N[C@H](Cc3ccc4ccccc4c3)C(=O)N[C@@H](c3ccccc3)C(=O)N2)C(=O)NC[C@@H](C(=O)N[C@@H](CCCN)C(=O)N[C@H](CCCNC(=N)N)C(=O)N[C@@H](CCc2ccccc2)C(=O)N[C@H](C)C(N)=O)NC(=O)[C@H](CCCNC(=N)N)NC(=O)[C@@H](CCCNC(=N)N)NC1=O | – |
| 4.8 µM | CC(C)C[C@H]1NC(=O)[C@@H](Cc2ccccc2)NC(=O)[C@@H]2CCCCNC(=O)c3cc(cc(c3)C(=O)N[C@H](Cc3ccc4ccccc4c3)C(=O)N[C@@H](CO)C(=O)N[C@@H](CC(N)=O)C(=O)N[C@H](Cc3ccc4ccccc4c3)C(=O)N[C@@H](c3ccccc3)C(=O)N2)C(=O)NC[C@@H](C(=O)N[C@@H](CCCN)C(=O)N[C@H](CCCNC(=N)N)C(=O)N[C@@H](Cc2ccccc2)C(=O)N[C@H](C)C(N)=O)NC(=O)[C@H](CCCNC(=N)N)NC(=O)[C@@H](CCCNC(=N)N)NC1=O | – |
| 9 µM | C[C@@H]1NC(=O)[C@@H](Cc2ccccc2)NC(=O)[C@@H]2CCCCNC(=O)c3cc(cc(c3)C(=O)N[C@H](Cc3ccc4ccccc4c3)C(=O)N[C@@H](CO)C(=O)N[C@@H](CC(N)=O)C(=O)N[C@H](Cc3ccc4ccccc4c3)C(=O)N[C@@H](c3ccccc3)C(=O)N2)C(=O)NC[C@@H](C(=O)N[C@@H](CC(N)=O)C(=O)N[C@H](CCCNC(=N)N)C(=O)N[C@@H](Cc2cccc(Cl)c2)C(=O)N[C@H](C)C(N)=O)NC(=O)[C@H](CCCNC(=N)N)NC(=O)[C@@H](CCCNC(=N)N)NC1=O | – |
| 4.5 µM | C[C@@H]1NC(=O)[C@@H](Cc2ccccc2)NC(=O)[C@@H]2CCCCNC(=O)c3cc(cc(c3)C(=O)N[C@H](Cc3ccc4ccccc4c3)C(=O)N[C@@H](CO)C(=O)N[C@@H](CC(N)=O)C(=O)N[C@H](Cc3ccc4ccccc4c3)C(=O)N[C@@H](c3ccccc3)C(=O)N2)C(=O)NC[C@@H](C(=O)N[C@@H](CCCN)C(=O)N[C@H](CCCNC(=N)N)C(=O)N[C@H](C(=O)N[C@H](C)C(N)=O)c2ccccc2)NC(=O)[C@H](CCCNC(=N)N)NC(=O)[C@@H](CCCNC(=N)N)NC1=O | – |
| 17 µM | C[C@@H](NC(=O)[C@H](Cc1ccccc1)NC(=O)[C@@H](CCCNC(=N)N)NC(=O)[C@H](CCCN)NC(=O)[C@@H]1CNC(=O)c2cc3cc(c2)C(=O)N[C@H](Cc2csc4ccccc24)C(=O)N[C@@H](CO)C(=O)N[C@@H](CC(N)=O)C(=O)N[C@H](Cc2ccc4ccccc4c2)C(=O)N[C@@H](c2ccccc2)C(=O)N[C@@H](CCCCNC3=O)C(=O)N[C@H](Cc2ccccc2)C(=O)N[C@H](CCC(N)=O)C(=O)N[C@H](CCCNC(=N)N)C(=O)N[C@@H](CCCNC(=N)N)C(=O)N1)C(N)=O | – |
| – | C[C@@H]1NC(=O)[C@@H](Cc2ccccc2)NC(=O)[C@@H]2CCCCNC(=O)c3cc(cc(c3)C(=O)N[C@H](Cc3ccc4ccccc4c3)C(=O)N[C@@H](CO)C(=O)N[C@@H](CC(N)=O)C(=O)N[C@H](Cc3ccc4ccccc4c3)C(=O)N[C@@H](c3ccccc3)C(=O)N2)C(=O)NC[C@@H](C(=O)N[C@@H](CCCN)C(=O)N[C@H](CCCNC(=N)N)C(=O)N[C@@H](Cc2c[nH]c3ccccc23)C(=O)N[C@H](C)C(N)=O)NC(=O)[C@H](CCCNC(=N)N)NC(=O)[C@@H](CCCNC(=N)N)NC1=O | EC50 (NCI-H358; nci-h358): Not Active |
| 5.2 µM | C[C@@H](NC(=O)[C@H](Cc1ccccc1)NC(=O)[C@@H](CCCNC(=N)N)NC(=O)[C@H](CCCN)NC(=O)[C@@H]1CNC(=O)c2cc3cc(c2)C(=O)N[C@H](Cc2ccc4ccccc4c2)C(=O)N[C@@H](CO)C(=O)N[C@@H](CC(N)=O)C(=O)N[C@H](Cc2csc4ccccc24)C(=O)N[C@@H](c2ccccc2)C(=O)N[C@@H](CCCCNC3=O)C(=O)N[C@H](Cc2ccccc2)C(=O)N[C@H](CCC(N)=O)C(=O)N[C@H](CCCNC(=N)N)C(=O)N[C@@H](CCCNC(=N)N)C(=O)N1)C(N)=O | – |
| 16 µM | C[C@@H]1NC(=O)[C@@H](Cc2ccccc2)NC(=O)[C@@H]2CCCCNC(=O)c3cc(cc(c3)C(=O)N[C@H](Cc3ccc4ccccc4c3)C(=O)N[C@@H](CO)C(=O)N[C@@H](CC(N)=O)C(=O)N[C@H](Cc3ccc4ccccc4c3)C(=O)N[C@@H](c3ccccc3)C(=O)N2)C(=O)NC[C@@H](C(=O)N[C@@H](CCN)CC(=O)N[C@H](CCCNC(=N)N)C(N)=O)NC(=O)[C@H](CCCNC(=N)N)NC(=O)[C@@H](CCCNC(=N)N)NC1=O | – |
| 2.6 µM | C[C@@H](O)[C@H](NC(=O)[C@H](Cc1ccccc1)NC(=O)[C@@H](CCCNC(=N)N)NC(=O)[C@H](CCCN)NC(=O)[C@@H]1CNC(=O)c2cc3cc(c2)C(=O)N[C@H](Cc2ccc4ccccc4c2)C(=O)N[C@@H](CO)C(=O)N[C@@H](CC(N)=O)C(=O)N[C@H](Cc2ccc4ccccc4c2)C(=O)N[C@@H](c2ccccc2)C(=O)N[C@@H](CCCCNC3=O)C(=O)N[C@H](Cc2ccccc2)C(=O)N[C@H](CCC(N)=O)C(=O)N[C@H](CCCNC(=N)N)C(=O)N[C@@H](CCCNC(=N)N)C(=O)N1)C(N)=O | – |
| 7.4 µM | C[C@H](NC(=O)C[C@H](Cc1ccccc1)NC(=O)[C@@H](CCCNC(=N)N)NC(=O)[C@H](CCCN)NC(=O)[C@@H]1CNC(=O)c2cc3cc(c2)C(=O)N[C@H](Cc2ccc4ccccc4c2)C(=O)N[C@@H](CO)C(=O)N[C@@H](CC(N)=O)C(=O)N[C@H](Cc2ccc4ccccc4c2)C(=O)N[C@@H](c2ccccc2)C(=O)N[C@@H](CCCCNC3=O)C(=O)N[C@H](Cc2ccccc2)C(=O)N[C@H](CCC(N)=O)C(=O)N[C@H](CCCNC(=N)N)C(=O)N[C@@H](CCCNC(=N)N)C(=O)N1)C(N)=O | – |
| – | C[C@@H]1NC(=O)[C@@H](Cc2ccccc2)NC(=O)[C@@H]2CCCCNC(=O)c3cc(cc(c3)C(=O)N[C@H](Cc3ccc4ccccc4c3)C(=O)N[C@@H](CO)C(=O)N[C@@H](CC(N)=O)C(=O)N[C@H](Cc3ccc4ccccc4c3)C(=O)N[C@@H](c3ccccc3)C(=O)N2)C(=O)NC[C@@H](C(=O)N[C@@H](CN)C(=O)N[C@H](CCCNC(=N)N)C(=O)N[C@@H](Cc2ccc(F)cc2)C(=O)N[C@H](C)C(N)=O)NC(=O)[C@H](CCCNC(=N)N)NC(=O)[C@@H](CCCNC(=N)N)NC1=O | EC50 (NCI-H358; nci-h358): Not Active |
| 6.4 µM | C[C@@H](NC(=O)[C@H](Cc1ccccc1)NC(=O)[C@@H](CCCNC(=N)N)NC(=O)[C@H](CCCN)NC(=O)[C@@H]1CNC(=O)c2cc3cc(c2)C(=O)N[C@H](Cc2ccc4ccccc4c2)C(=O)N[C@@H](CO)C(=O)N[C@@H](CC(N)=O)C(=O)N[C@H](Cc2ccc4ccccc4c2)C(=O)N[C@@H](c2ccccc2)C(=O)N[C@@H](CCCCNC3=O)C(=O)N[C@H](Cc2ccccc2)C(=O)N[C@H](CCCN)C(=O)N[C@H](CCCNC(=N)N)C(=O)N[C@@H](CCCNC(=N)N)C(=O)N1)C(N)=O | – |
| – | C[C@@H](NC(=O)[C@H](Cc1ccccc1)NC(=O)[C@@H](CCCNC(=N)N)NC(=O)[C@H](CCCN)NC(=O)[C@@H]1CNC(=O)c2cc3cc(c2)C(=O)N[C@H](Cc2ccc4ccccc4c2)C(=O)N[C@@H](CCO)C(=O)N[C@@H](CC(N)=O)C(=O)N[C@H](Cc2ccc4ccccc4c2)C(=O)N[C@@H](c2ccccc2)C(=O)N[C@@H](CCCCNC3=O)C(=O)N[C@H](Cc2ccccc2)C(=O)N[C@H](CCC(N)=O)C(=O)N[C@H](CCCNC(=N)N)C(=O)N[C@@H](CCCNC(=N)N)C(=O)N1)C(N)=O | EC50 (NCI-H358; nci-h358): Not Active |
